The target in one data set is IRAK4 (Homo sapiens (Human), UniProt Q9NWZ3). The data set is described as follows: IRAK4 MSD biochemical assay (2-hour 1 mM ATP). Particulars: 0.1 nM IRAK4, 1 mM ATP, 2 hour at room temperature.
Data set [1] is described as follows: Kinetic solubility assay (CLND), pH 6.8. The format is physicochemical. Conditions: potassium phosphate buffer pH 6.8, 2% DMSO, 24 hours at ambient temperature.
Data set [2] has as its target Human MDR1 transfected MDCK cells (Homo sapiens (Human), UniProt P08183). The data set is described as follows: MDR1-MDCK assay. Conditions: 1 μM test concentration, 120 minutes incubation.
The nature of data set [3]: Kpuu assay (in vivo brain-to-plasma unbound partition). Particulars: brain (unbound) versus plasma (unbound); intravenous infusion 4 to 24 h; unbound brain/plasma ratio; read-out: Brain Kpu, u.
Another data set concerns the target MDR1 (Homo sapiens (Human), UniProt P08183). The data set is described as follows: in vitro. Conditions: MDCK-MDR1.

Where a name gives a salt, the structure may show the parent alone.

Sequence of IRAK4 (Q9NWZ3 whole entry): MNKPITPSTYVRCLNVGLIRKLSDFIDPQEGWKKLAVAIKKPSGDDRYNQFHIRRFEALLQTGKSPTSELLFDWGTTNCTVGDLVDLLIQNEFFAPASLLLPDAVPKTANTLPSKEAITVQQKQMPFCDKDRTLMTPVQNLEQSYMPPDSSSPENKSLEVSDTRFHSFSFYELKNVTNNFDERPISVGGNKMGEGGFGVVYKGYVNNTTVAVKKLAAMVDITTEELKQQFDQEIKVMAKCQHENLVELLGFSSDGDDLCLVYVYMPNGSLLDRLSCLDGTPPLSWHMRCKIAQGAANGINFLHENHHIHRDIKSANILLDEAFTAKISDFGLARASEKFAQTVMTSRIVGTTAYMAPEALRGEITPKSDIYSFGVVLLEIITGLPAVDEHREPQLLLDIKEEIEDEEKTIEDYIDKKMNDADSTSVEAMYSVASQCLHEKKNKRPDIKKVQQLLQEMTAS
Sequence of MDR1 (P08183 whole entry): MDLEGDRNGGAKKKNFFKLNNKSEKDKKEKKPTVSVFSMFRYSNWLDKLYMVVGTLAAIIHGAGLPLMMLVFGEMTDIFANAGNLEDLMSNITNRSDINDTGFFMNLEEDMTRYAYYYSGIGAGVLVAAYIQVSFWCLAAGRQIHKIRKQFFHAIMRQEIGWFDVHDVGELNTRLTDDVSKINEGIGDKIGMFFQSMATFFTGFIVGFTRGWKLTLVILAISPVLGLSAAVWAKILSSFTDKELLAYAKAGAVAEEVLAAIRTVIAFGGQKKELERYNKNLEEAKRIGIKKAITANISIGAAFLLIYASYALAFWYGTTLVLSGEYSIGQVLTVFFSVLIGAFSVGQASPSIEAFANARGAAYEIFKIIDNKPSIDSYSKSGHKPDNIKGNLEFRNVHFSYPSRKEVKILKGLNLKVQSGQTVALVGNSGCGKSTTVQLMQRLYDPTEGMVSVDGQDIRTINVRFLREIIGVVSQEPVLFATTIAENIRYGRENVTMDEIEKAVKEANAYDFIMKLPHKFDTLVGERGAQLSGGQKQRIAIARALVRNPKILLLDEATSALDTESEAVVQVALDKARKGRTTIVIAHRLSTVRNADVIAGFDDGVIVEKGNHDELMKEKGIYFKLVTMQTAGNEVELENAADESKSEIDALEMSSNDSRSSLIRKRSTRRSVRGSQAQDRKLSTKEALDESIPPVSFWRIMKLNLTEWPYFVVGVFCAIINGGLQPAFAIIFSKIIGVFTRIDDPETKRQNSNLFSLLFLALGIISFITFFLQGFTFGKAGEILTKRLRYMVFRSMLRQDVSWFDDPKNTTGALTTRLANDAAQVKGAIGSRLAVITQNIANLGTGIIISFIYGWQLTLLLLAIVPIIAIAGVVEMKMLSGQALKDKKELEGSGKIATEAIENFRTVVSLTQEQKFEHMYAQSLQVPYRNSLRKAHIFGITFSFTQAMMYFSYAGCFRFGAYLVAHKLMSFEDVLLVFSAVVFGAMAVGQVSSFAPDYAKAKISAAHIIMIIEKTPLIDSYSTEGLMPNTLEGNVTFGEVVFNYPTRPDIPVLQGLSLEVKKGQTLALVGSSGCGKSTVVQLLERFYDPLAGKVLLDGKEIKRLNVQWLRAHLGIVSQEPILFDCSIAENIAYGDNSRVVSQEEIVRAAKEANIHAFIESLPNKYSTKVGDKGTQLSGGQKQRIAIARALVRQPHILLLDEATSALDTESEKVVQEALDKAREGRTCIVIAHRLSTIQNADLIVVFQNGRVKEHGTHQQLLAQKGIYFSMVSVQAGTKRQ
Sequence of Human MDR1 transfected MDCK cells (P08183 whole entry, the tested form may be a part): as the sequence (P08183 whole entry) above

Regarding `O=C(Nc1cccn(C2CC2)c1=O)c1cn2cc(C34COC(C3)C4)nc2nc1OC1CCC1` [Example 36, 2-(2-oxabicyclo[2.1.1]hexan-4-yl)-7-cyclobutoxy-N-(1-cyclopropyl-2-oxo-1,2-dihydropyridin-3-yl)imidazo[1,2-a]pyrimidine-6-carboxamide], at IRAK4, the IC50 was 1.7 nM. The “pH 6.8 Solubility (ug/mL)” value in data set [1] is listed as 20.8 ug/mL. Also, the “MDR1-MDCK Efflux Ratio” value in data set [2] was found to be 6.4.

Consider `CC(C)Oc1cc2nc([C@]34CC[C@](C)(C3)OC4)cn2cc1C(=O)Nc1cccn([C@H]2C[C@H]2C)c1=O` [Example 180, 7-isopropoxy-2-((1R,4S)-1-methyl-2-oxabicyclo[2.2.1]heptan-4-yl)-N-(1-((1S,2R)-2-methylcyclopropyl)-2-oxo-1,2-dihydropyridin-3-yl)imidazo[1,2-a]pyridine-6-carboxamide trifluoroacetate], for which inhibition against IRAK4 was half-maximal at 0.2 nM (IC50). In data set [1] (aqueous buffer, kinetic from dmso stock), this molecule displayed a solubility (kinetic) at 24 h of 23 µg/mL. The Kpuu (unbound brain-to-plasma partition coefficient) in data set [3] came out at 1.58. The efflux ratio at 120 min, 1 μM at MDR1 stood at 2.6.

The record behind these values is patent publication US20240116922A1, “IMIDAZO[1,2-A]PYRIDINE DERIVATIVES AS IRAK4 INHIBITORS AND THEIR USE IN THE TREATMENT OF DISEASE” (BIOGEN MA INC., priority 2020, published 2024).
